Paper PMC10377643, “Exploration of Bis-Cinnamido-Polyamines as Intrinsic Antimicrobial Agents and Antibiotic Enhancers” (Biomolecules, 2023)
Converted amounts (≈) assume the structure as drawn. Like-named read-outs stand apart in the source and are kept apart here.

How the values were obtained:
A. baumannii AYE = test: Intrinsic MIC, A. baumannii AYE; assay type: cell-based; settings: Acinetobacter baumannii, read-out: MIC alone, A. b
Description: (§1) Antibiotic enhancer concentrations were determined using previously reported protocols.

S. aureus ATCC 25923 = test: Antimicrobial MIC, S. aureus; assay type: cell-based; settings: Staphylococcus aureus, ATCC25923, mean (n = 3)
Description: (§2) The susceptibility of bacterial strains S. aureus (ATCC 25923), E. coli (ATCC 25922) and P. aeruginosa (ATCC 27853) to antibiotics and compounds was determined using protocols reported previously. Additional antimicrobial evaluation against MRSA (ATCC 43300), Klebsiella pneumoniae (ATCC 700603), Acinetobacter baumannii (ATCC 19606), Candida albicans (ATCC 90028) and Cryptococcus neoformans (ATCC 208821) was undertaken at the Community for Open Antimicrobial Drug Discovery at The University of Queensland (Australia) according to their standard protocols reported previously.

P. aeruginosa PAO1 = test: Intrinsic MIC, P. aeruginosa PAO1; assay type: cell-based; settings: Pseudomonas aeruginosa
Description: as §1

K. pneumoniae ATCC 13883 = test: Intrinsic MIC, K. pneumoniae ATCC 13883; assay type: cell-based; settings: Klebsiella pneumoniae
Description: as §1

P. aeruginosa ATCC 27853 = test: Antimicrobial MIC, P. aeruginosa; assay type: cell-based; settings: Pseudomonas aeruginosa, ATCC27853, mean (n = 3)
Description: as §2

MRSA ATCC 43300 = test: Antimicrobial MIC, MRSA (CO-ADD); assay type: cell-based, methicillin-resistant S. aureus; settings: Staphylococcus aureus, read-out: MIC MRSA
Description: as §2

[1] = A. baumannii AYE, substance alone
[2] = P. aeruginosa PAO1, substance alone (no antibiotic / no enhancer), read-out: MIC alone, P. a
[3] = ATCC13883, K. pneumoniae ATCC 13883, substance alone, read-out: MIC alone, K. p

| MIC (A. baumannii AYE; [1]) | MIC (S. aureus ATCC 25923) | MIC (P. aeruginosa PAO1; [2]) | MIC (K. pneumoniae ATCC 13883; [3]) | MIC (P. aeruginosa ATCC 27853) | Compound | MIC (A. baumannii AYE) | MIC (P. aeruginosa PAO1; PAO1, read-out: MIC alone, P. a) | MIC (MRSA ATCC 43300) | MIC (K. pneumoniae ATCC 13883; ATCC13883, read-out: MIC alone, K. p) |
| --- | --- | --- | --- | --- | --- | --- | --- | --- | --- |
| > 200 µM | 1.5 to 3 µM (≈ 0.485 to 0.969 µg/mL) | > 200 µM | > 200 µM | – | O=C(N[C@H](CO)[C@H](O)c1ccc([N+](=O)[O-])cc1)C(Cl)Cl [chloramphenicol] | – | – | – | – |
| – | – | 144 µM | – | 90 µM (≈ 40 µg/mL) | C[C@H]1c2cccc(O)c2C(=O)C2=C(O)[C@]3(O)C(=O)C(C(N)=O)=C(O)[C@@H](N(C)C)[C@@H]3[C@@H](O)[C@@H]21 [doxycycline, reference compound] | – | – | – | – |
| > 200 µM | – | > 200 µM | > 200 µM | – | CC[C@H]1OC(=O)[C@H](C)[C@@H](O[C@H]2C[C@@](C)(OC)[C@@H](O)[C@H](C)O2)[C@H](C)[C@@H](O[C@@H]2O[C@H](C)C[C@H](N(C)C)[C@H]2O)[C@](C)(O)C[C@@H](C)C(=O)[C@H](C)[C@@H](O)[C@]1(C)O [erythromycin] | – | – | – | – |
| 27 µM (≈ 12.4 µg/mL) | – | 70 µM | 27 µM (≈ 12.4 µg/mL) | – | CN(C)c1ccc(O)c2c1C[C@H]1C[C@H]3[C@H](N(C)C)C(O)=C(C(N)=O)C(=O)[C@@]3(O)C(O)=C1C2=O [minocycline] | – | – | – | – |
| > 200 µM | – | > 200 µM | > 200 µM | – | CCn1cc(C(=O)O)c(=O)c2ccc(C)nc21 [nalidixic acid] | – | – | – | – |
| – | – | – | – | – | CN[C@H](CC(C)C)C(=O)N[C@H]1C(=O)N[C@@H](CC(N)=O)C(=O)N[C@H]2C(=O)N[C@H]3C(=O)N[C@H](C(=O)N[C@H](C(=O)O)c4cc(O)cc(O)c4-c4cc3ccc4O)[C@H](O)c3ccc(c(Cl)c3)Oc3cc2cc(c3O[C@@H]2O[C@H](CO)[C@@H](O)[C@H](O)[C@H]2O[C@H]2C[C@](C)(N)[C@H](O)[C@H](C)O2)Oc2ccc(cc2Cl)[C@H]1O [vancomycin] | 138 µM (≈ 200 µg/mL) | 138 µM (≈ 200 µg/mL) | 0.7 µM (≈ 1.01 µg/mL) | 138 µM (≈ 200 µg/mL) |
